Experiment [1] addresses T1, BK2 receptor (Cavia porcellus, UniProt O70526).
T1 construct: tested for activity on guinea pig ileum in vitro on the standard tissue bath/strain gauge system; from tissue; host or cells: guinea pig ileum
T1 sequence (O70526 1-372): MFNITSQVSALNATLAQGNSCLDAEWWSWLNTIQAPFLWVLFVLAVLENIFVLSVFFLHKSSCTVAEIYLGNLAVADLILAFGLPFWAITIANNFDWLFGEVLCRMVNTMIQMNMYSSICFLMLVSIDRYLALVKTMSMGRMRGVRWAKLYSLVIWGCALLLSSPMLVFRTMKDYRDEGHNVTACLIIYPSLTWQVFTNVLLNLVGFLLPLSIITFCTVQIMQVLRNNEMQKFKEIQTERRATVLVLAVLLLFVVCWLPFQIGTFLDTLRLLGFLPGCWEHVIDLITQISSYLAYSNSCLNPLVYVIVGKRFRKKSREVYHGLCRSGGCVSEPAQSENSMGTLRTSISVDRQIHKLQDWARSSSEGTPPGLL
Description: guinea-pig ileum (GPI) in vitro, antagonism of BK. It counts as cell-based. Particulars: Table E. The essentials: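 Isolated guinea-pig ileum in tissue bath with strain-gauge recording; antagonism of bradykinin contractions. Potency expressed as pA2 (Schild method: negative log molar antagonist concentration causing two-fold agonist potency shift); percentage recovery also determined.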

Another experiment has as its target T2, BK1 receptor (Oryctolagus cuniculus, UniProt P48748).
T2 construct: when administered to an intact animal; from tissue; host or cells: whole rabbit (systemic arterial blood pressure), LPS-pretreated
T2 sequence (P48748 1-352): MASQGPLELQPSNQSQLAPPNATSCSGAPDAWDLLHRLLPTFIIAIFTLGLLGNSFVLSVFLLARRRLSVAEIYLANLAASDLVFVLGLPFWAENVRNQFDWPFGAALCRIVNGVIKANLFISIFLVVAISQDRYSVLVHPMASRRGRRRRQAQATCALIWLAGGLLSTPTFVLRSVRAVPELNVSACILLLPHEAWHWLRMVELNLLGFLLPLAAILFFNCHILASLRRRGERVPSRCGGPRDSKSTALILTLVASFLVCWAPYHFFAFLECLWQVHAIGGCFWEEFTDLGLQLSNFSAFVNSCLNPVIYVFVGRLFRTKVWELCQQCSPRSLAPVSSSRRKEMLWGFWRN
Description: rabbit aorta in vitro, reversal of des-Arg^9 -BK contraction. Particulars: Table G; negative log of molar concentration causing 50% reversal of 10^-7 M des-Arg^9 -BK contraction. The class given is cell-based.

Experiment [2] addresses T3, BK2 receptor (Rattus norvegicus, UniProt P25023).
T3 sequence (P25023 1-396): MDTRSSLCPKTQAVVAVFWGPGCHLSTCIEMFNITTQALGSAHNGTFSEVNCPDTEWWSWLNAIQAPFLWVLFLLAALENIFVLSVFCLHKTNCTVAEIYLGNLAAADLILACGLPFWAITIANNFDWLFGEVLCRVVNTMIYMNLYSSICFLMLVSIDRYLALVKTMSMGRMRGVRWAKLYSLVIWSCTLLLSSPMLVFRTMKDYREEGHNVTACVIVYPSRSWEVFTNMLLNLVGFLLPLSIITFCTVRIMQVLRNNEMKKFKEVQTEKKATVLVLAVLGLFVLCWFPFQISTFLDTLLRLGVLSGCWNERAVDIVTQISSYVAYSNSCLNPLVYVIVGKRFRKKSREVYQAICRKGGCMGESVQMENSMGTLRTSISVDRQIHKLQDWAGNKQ
Particulars: Table C, rat uterus; P.A. = partial antagonist.

In experiment [3] the target is T3, BK2 receptor. Description: cell-based.
In a further experiment the target is T4, NK2 receptor (Oryctolagus cuniculus, UniProt P79218).
T4 construct: reduce a sustained contractile response produced by neurokinin A by 50%; from tissue; host or cells: contractile tissue preparation (rabbit pulmonary artery per the earlier reading)
T4 sequence (P79218 1-384): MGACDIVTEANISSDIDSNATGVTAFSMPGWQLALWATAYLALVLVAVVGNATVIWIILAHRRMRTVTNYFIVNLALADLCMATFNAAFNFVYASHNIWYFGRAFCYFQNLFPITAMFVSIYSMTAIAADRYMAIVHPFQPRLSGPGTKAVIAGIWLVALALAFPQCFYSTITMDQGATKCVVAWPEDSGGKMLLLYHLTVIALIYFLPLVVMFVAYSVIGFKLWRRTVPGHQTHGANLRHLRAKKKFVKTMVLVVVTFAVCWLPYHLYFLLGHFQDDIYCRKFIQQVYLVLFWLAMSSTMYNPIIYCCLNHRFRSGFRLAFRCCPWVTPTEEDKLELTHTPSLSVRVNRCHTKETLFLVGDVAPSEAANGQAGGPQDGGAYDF
In words: rabbit pulmonary artery, reduction of neurokinin A contraction. The class given is cell-based. Particulars: Table R; negative log of molar concentration reducing sustained neurokinin A contraction by 50%; read-out: NK2 Rabbit Pulm Art log (converted). The method, then: The heterodimers thus obtained were tested for activity as heretofore described, the results being shown in Table R. In this Table -log [M] represents the negative log of the molar concentration of the antagonist necessary to reduce a sustained contractile response produced by neurokinin A by 50%.

Structures are written as SMILES. Read-outs that look alike come from different tables or passages of the source. Peptide text beside a SMILES is read from it.

On to `CC(C)C[C@H](NC(=O)[C@@H](Cc1ccccc1)NC(=O)[C@H](CSC1CC(=O)N(CCCCCCN2C(=O)CC(SC[C@H](NC(=O)[C@H](Cc3ccccc3)NC(=O)CNC(=O)[C@@H]3C[C@@H](O)CN3C(=O)[C@@H]3CCCN3C(=O)[C@H](CCCNC(=N)N)NC(=O)[C@H](N)CCCNC(=N)N)C(=O)N[C@H](Cc3ccccc3)C(=O)N[C@@H](CC(C)C)C(=O)N[C@@H](CCCNC(=N)N)C(=O)O)C2=O)C1=O)NC(=O)[C@H](Cc1ccccc1)NC(=O)CNC(=O)[C@@H]1C[C@@H](O)CN1C(=O)[C@@H]1CCCN1C(=O)[C@H](CCCNC(=N)N)NC(=O)[C@H](N)CCCNC(=N)N)C(=O)N[C@@H](CCCNC(=N)N)C(=O)O` (stereo partly drawn) [CP-0127] (HELM PEPTIDE1{[dR].R.P.[Hyp].G.F.C.[dF].L.R}|PEPTIDE2{[dR].R.P.[Hyp].G.F.C.[dF].L.R}|CHEM1{[O=C1CC([*:1])C(=O)N1CCCCCCN1C(=O)CC([*:2])C1=O]}$PEPTIDE1,CHEM1,7:R3-1:R1|PEPTIDE2,CHEM1,7:R3-1:R2$$$V2.0), for which, at BK2 receptor [1], the “GPI pA2” value came out at 7.7 ± 0.2. Moreover, the “BK1 RABBIT AORTA IC50” value on BK1 receptor is “Inactive”. Further, on BK2 receptor [2], the “pA2 DIMER” value was found to be 8.8 ± 0.3. Further, the Kb at BK2 receptor [3] (BK2 RAT UTERUS pA2, Table G) is 3.16 nM; at BK2 receptor [3] (pA2 (UTERUS), Table D, effect of linker length) it was 1.58 nM.

In the case of `CC(C)C[C@H](NC(=O)[C@@H](Cc1ccccc1)NC(=O)[C@H](CSC1CC(=O)N(CCCCCCN2C(=O)CC(SC[C@H](N)C(=O)N[C@@H](Cc3ccc(O)cc3)C(=O)N[C@H](Cc3c[nH]c4ccccc34)C(=O)N[C@H](C(=O)N[C@H](Cc3c[nH]c4ccccc34)C(=O)N[C@H](Cc3c[nH]c4ccccc34)C(=O)N[C@@H](CCCNC(=N)N)C(N)=O)C(C)C)C2=O)C1=O)NC(=O)[C@H](Cc1ccccc1)NC(=O)CNC(=O)[C@@H]1C[C@@H](O)CN1C(=O)[C@@H]1CCCN1C(=O)[C@H](CCCNC(=N)N)NC(=O)[C@H](N)CCCNC(=N)N)C(=O)N[C@@H](CCCNC(=N)N)C(=O)O` (stereo partly drawn) [CP-0411] (HELM PEPTIDE1{[dR].R.P.[Hyp].G.F.C.[dF].L.R}|PEPTIDE2{C.Y.[dW].V.[dW].[dW].R.[am]}|CHEM1{[O=C1CC([*:1])C(=O)N1CCCCCCN1C(=O)CC([*:2])C1=O]}$PEPTIDE1,CHEM1,7:R3-1:R1|PEPTIDE2,CHEM1,1:R3-1:R2$$$V2.0; N-terminus assumed), the IC50 at NK2 receptor was 3160 nM. At BK2 receptor [3], this compound had a Kb of 31.6 nM.

On to `CC(C)C[C@H](NC(=O)[C@@H](Cc1ccccc1)NC(=O)[C@H](CSC1CC(=O)N(CCCCCCN2C(=O)CC(SC[C@H](NC(=O)[C@@H](Cc3c[nH]c4ccccc34)NC(=O)[C@H](Cc3ccc(O)cc3)NC(=O)[C@@H](N)CC(=O)O)C(=O)N[C@H](Cc3c[nH]c4ccccc34)C(=O)N[C@H](Cc3c[nH]c4ccccc34)C(=O)N[C@@H](CCCNC(=N)N)C(N)=O)C2=O)C1=O)NC(=O)[C@H](Cc1ccccc1)NC(=O)CNC(=O)[C@@H]1C[C@@H](O)CN1C(=O)[C@@H]1CCCN1C(=O)[C@H](CCCNC(=N)N)NC(=O)[C@H](N)CCCNC(=N)N)C(=O)N[C@@H](CCCNC(=N)N)C(=O)O` (stereo partly drawn) [CP-0414] (HELM PEPTIDE1{[dR].R.P.[Hyp].G.F.C.[dF].L.R}|PEPTIDE2{D.Y.[dW].C.[dW].[dW].R.[am]}|CHEM1{[O=C1CC([*:1])C(=O)N1CCCCCCN1C(=O)CC([*:2])C1=O]}$PEPTIDE1,CHEM1,7:R3-1:R1|PEPTIDE2,CHEM1,4:R3-1:R2$$$V2.0; N-terminus assumed), for which, on NK2 receptor, the IC50 is 6310 nM. In addition, the Kb at BK2 receptor [3] is 15.8 nM.

As for `CC(C)C[C@H](NC(=O)[C@@H](Cc1ccccc1)NC(=O)[C@H](CSC1CC(=O)N(CCCCCCN2C(=O)CC(SC[C@H](NC(=O)[C@@H](NC(=O)[C@@H](Cc3c[nH]c4ccccc34)NC(=O)[C@H](Cc3ccc(O)cc3)NC(=O)[C@@H](N)CC(=O)O)C(C)C)C(=O)N[C@H](Cc3c[nH]c4ccccc34)C(=O)N[C@@H](CCCNC(=N)N)C(N)=O)C2=O)C1=O)NC(=O)[C@H](Cc1ccccc1)NC(=O)CNC(=O)[C@@H]1C[C@@H](O)CN1C(=O)[C@@H]1CCCN1C(=O)[C@H](CCCNC(=N)N)NC(=O)[C@H](N)CCCNC(=N)N)C(=O)N[C@@H](CCCNC(=N)N)C(=O)O` (stereo partly drawn) [CP-0415] (HELM PEPTIDE1{[dR].R.P.[Hyp].G.F.C.[dF].L.R}|PEPTIDE2{D.Y.[dW].V.C.[dW].R.[am]}|CHEM1{[O=C1CC([*:1])C(=O)N1CCCCCCN1C(=O)CC([*:2])C1=O]}$PEPTIDE1,CHEM1,7:R3-1:R1|PEPTIDE2,CHEM1,5:R3-1:R2$$$V2.0; N-terminus assumed), at NK2 receptor, the IC50 is 6310 nM. At BK2 receptor [3], this compound had a Kb of 15.8 nM.

As to `CC(C)C[C@H](NC(=O)[C@@H](Cc1ccccc1)NC(=O)[C@H](CSC1CC(=O)N(CCCCCCN2C(=O)CC(SC[C@H](NC(=O)[C@@H](Cc3c[nH]c4ccccc34)NC(=O)[C@@H](NC(=O)[C@@H](Cc3c[nH]c4ccccc34)NC(=O)[C@H](Cc3ccc(O)cc3)NC(=O)[C@@H](N)CC(=O)O)C(C)C)C(=O)N[C@@H](CCCNC(=N)N)C(N)=O)C2=O)C1=O)NC(=O)[C@H](Cc1ccccc1)NC(=O)CNC(=O)[C@@H]1C[C@@H](O)CN1C(=O)[C@@H]1CCCN1C(=O)[C@H](CCCNC(=N)N)NC(=O)[C@H](N)CCCNC(=N)N)C(=O)N[C@@H](CCCNC(=N)N)C(=O)O` (stereo partly drawn) [CP-0416] (HELM PEPTIDE1{[dR].R.P.[Hyp].G.F.C.[dF].L.R}|PEPTIDE2{D.Y.[dW].V.[dW].C.R.[am]}|CHEM1{[O=C1CC([*:1])C(=O)N1CCCCCCN1C(=O)CC([*:2])C1=O]}$PEPTIDE1,CHEM1,7:R3-1:R1|PEPTIDE2,CHEM1,6:R3-1:R2$$$V2.0; N-terminus assumed), on NK2 receptor, the IC50 was 2510 nM. On BK2 receptor [3], this compound had a Kb of 2 nM.

For `CC(C)C[C@H](NC(=O)[C@@H](Cc1ccccc1)NC(=O)[C@H](CSC1CC(=O)N(CCCCCCN2C(=O)CC(SC[C@H](NC(=O)[C@@H](Cc3c[nH]c4ccccc34)NC(=O)[C@@H](Cc3c[nH]c4ccccc34)NC(=O)[C@@H](NC(=O)[C@@H](Cc3c[nH]c4ccccc34)NC(=O)[C@H](Cc3ccc(O)cc3)NC(=O)[C@@H](N)CC(=O)O)C(C)C)C(N)=O)C2=O)C1=O)NC(=O)[C@H](Cc1ccccc1)NC(=O)CNC(=O)[C@@H]1C[C@@H](O)CN1C(=O)[C@@H]1CCCN1C(=O)[C@H](CCCNC(=N)N)NC(=O)[C@H](N)CCCNC(=N)N)C(=O)N[C@@H](CCCNC(=N)N)C(=O)O` (stereo partly drawn) [CP-0417] (HELM PEPTIDE1{[dR].R.P.[Hyp].G.F.C.[dF].L.R}|PEPTIDE2{D.Y.[dW].V.[dW].[dW].C.[am]}|CHEM1{[O=C1CC([*:1])C(=O)N1CCCCCCN1C(=O)CC([*:2])C1=O]}$PEPTIDE1,CHEM1,7:R3-1:R1|PEPTIDE2,CHEM1,7:R3-1:R2$$$V2.0), the IC50 at NK2 receptor was 2510 nM. The compound further had a Kb at BK2 receptor [3] of 10 nM.

The values above are taken from US5620958A, “Bradykinin antagonists” (Coretech, Inc., priority 1994, dated 1997).
